Assay results from the NIST ThermoML archive (doi:10.1021/acs.jced.8b00554).
± gives the expanded uncertainty stated by the source.

Experiment: xn = mol fraction of the nth substance listed
Settings: Liquid, Vibrating tube method

CCCCCCCC [octane] + CCCO
Settings	mass density [kg/m3]
313.15 K, 15010 kPa, x2 = 0.8823	776.2 ± 5
313.15 K, 15020 kPa, x2 = 0.1631	706.63 ± 4.5
313.15 K, 16000 kPa, x2 = 0.1631	707.41 ± 4.5
313.15 K, 16010 kPa, x2 = 0.4411	725.31 ± 4.7
313.15 K, 16010 kPa, x2 = 0.7301	754.27 ± 4.8
313.15 K, 16010 kPa, x2 = 0.8823	776.98 ± 5
313.15 K, 16020 kPa, x2 = 0.2111	710.08 ± 4.5
313.15 K, 16020 kPa, x2 = 0.3158	716.32 ± 4.6
313.15 K, 17000 kPa, x2 = 0.8823	777.78 ± 5
313.15 K, 17020 kPa, x2 = 0.1631	708.23 ± 4.5
313.15 K, 17020 kPa, x2 = 0.2111	710.85 ± 4.6
313.15 K, 17020 kPa, x2 = 0.3158	717.13 ± 4.6
313.15 K, 17020 kPa, x2 = 0.4411	726.11 ± 4.7
313.15 K, 17020 kPa, x2 = 0.7301	755.05 ± 4.8
313.15 K, 18000 kPa, x2 = 0.1631	709.02 ± 4.5
313.15 K, 18000 kPa, x2 = 0.4411	726.91 ± 4.7
313.15 K, 18010 kPa, x2 = 0.2111	711.64 ± 4.6
313.15 K, 18010 kPa, x2 = 0.3158	717.91 ± 4.6
313.15 K, 18010 kPa, x2 = 0.8823	778.53 ± 5
313.15 K, 18020 kPa, x2 = 0.7301	755.85 ± 4.8
313.15 K, 19000 kPa, x2 = 0.3158	718.69 ± 4.6
313.15 K, 19000 kPa, x2 = 0.7301	756.62 ± 4.8
313.15 K, 19010 kPa, x2 = 0.2111	712.43 ± 4.6
313.15 K, 19010 kPa, x2 = 0.4411	727.68 ± 4.7
313.15 K, 19010 kPa, x2 = 0.8823	779.29 ± 5
313.15 K, 19020 kPa, x2 = 0.1631	709.81 ± 4.5
313.15 K, 20000 kPa, x2 = 0.2111	713.22 ± 4.6
313.15 K, 20000 kPa, x2 = 0.4411	728.45 ± 4.7
313.15 K, 20010 kPa, x2 = 0.1631	710.59 ± 4.6
313.15 K, 20010 kPa, x2 = 0.3158	719.47 ± 4.6
313.15 K, 20010 kPa, x2 = 0.7301	757.39 ± 4.9
313.15 K, 20020 kPa, x2 = 0.8823	780.06 ± 5
323.15 K, 100 kPa, x2 = 0.1631	684.56 ± 4.4
323.15 K, 100 kPa, x2 = 0.2111	687.03 ± 4.4
323.15 K, 100 kPa, x2 = 0.3158	693.22 ± 4.4
323.15 K, 100 kPa, x2 = 0.4411	702.44 ± 4.5
323.15 K, 100 kPa, x2 = 0.7301	731.25 ± 4.7
323.15 K, 100 kPa, x2 = 0.8823	754.72 ± 4.8
323.15 K, 1000 kPa, x2 = 0.8823	755.36 ± 4.8
323.15 K, 1010 kPa, x2 = 0.3158	694.15 ± 4.5
323.15 K, 1010 kPa, x2 = 0.4411	703 ± 4.5
323.15 K, 1010 kPa, x2 = 0.7301	732.1 ± 4.7
323.15 K, 1020 kPa, x2 = 0.1631	685.52 ± 4.4
323.15 K, 1020 kPa, x2 = 0.2111	688.02 ± 4.4
323.15 K, 2000 kPa, x2 = 0.4411	703.99 ± 4.5
323.15 K, 2010 kPa, x2 = 0.1631	686.54 ± 4.4
323.15 K, 2010 kPa, x2 = 0.2111	689.01 ± 4.4
323.15 K, 2010 kPa, x2 = 0.3158	695.16 ± 4.5
323.15 K, 2010 kPa, x2 = 0.7301	733.06 ± 4.7
323.15 K, 2020 kPa, x2 = 0.8823	756.3 ± 4.8
323.15 K, 3000 kPa, x2 = 0.4411	704.97 ± 4.5
323.15 K, 3010 kPa, x2 = 0.3158	696.14 ± 4.5
323.15 K, 3010 kPa, x2 = 0.7301	734.04 ± 4.7
323.15 K, 3010 kPa, x2 = 0.8823	757.26 ± 4.8
323.15 K, 3020 kPa, x2 = 0.1631	687.52 ± 4.4
323.15 K, 3020 kPa, x2 = 0.2111	690 ± 4.4
323.15 K, 4010 kPa, x2 = 0.7301	734.99 ± 4.7
323.15 K, 4010 kPa, x2 = 0.8823	758.2 ± 4.9
323.15 K, 4020 kPa, x2 = 0.1631	688.52 ± 4.4
323.15 K, 4020 kPa, x2 = 0.2111	691 ± 4.4
323.15 K, 4020 kPa, x2 = 0.3158	697.11 ± 4.5
323.15 K, 4020 kPa, x2 = 0.4411	705.97 ± 4.5
323.15 K, 5010 kPa, x2 = 0.1631	689.5 ± 4.4
323.15 K, 5010 kPa, x2 = 0.7301	735.97 ± 4.7
323.15 K, 5020 kPa, x2 = 0.2111	691.96 ± 4.4
323.15 K, 5020 kPa, x2 = 0.3158	698.1 ± 4.5
323.15 K, 5020 kPa, x2 = 0.4411	706.95 ± 4.5
323.15 K, 5020 kPa, x2 = 0.8823	759.13 ± 4.9
323.15 K, 6000 kPa, x2 = 0.7301	736.92 ± 4.7
323.15 K, 6010 kPa, x2 = 0.1631	690.43 ± 4.4
323.15 K, 6010 kPa, x2 = 0.2111	692.93 ± 4.4
323.15 K, 6010 kPa, x2 = 0.4411	707.91 ± 4.5
323.15 K, 6010 kPa, x2 = 0.8823	760.04 ± 4.9
323.15 K, 6020 kPa, x2 = 0.3158	699.06 ± 4.5
323.15 K, 7000 kPa, x2 = 0.1631	691.4 ± 4.4
323.15 K, 7010 kPa, x2 = 0.2111	693.87 ± 4.5
323.15 K, 7010 kPa, x2 = 0.4411	708.85 ± 4.5
323.15 K, 7010 kPa, x2 = 0.7301	737.85 ± 4.7
323.15 K, 7020 kPa, x2 = 0.3158	700.03 ± 4.5
323.15 K, 7020 kPa, x2 = 0.8823	760.95 ± 4.9
323.15 K, 8000 kPa, x2 = 0.1631	692.37 ± 4.4
323.15 K, 8010 kPa, x2 = 0.3158	700.95 ± 4.5
323.15 K, 8010 kPa, x2 = 0.4411	709.8 ± 4.5
323.15 K, 8010 kPa, x2 = 0.7301	738.79 ± 4.7
323.15 K, 8010 kPa, x2 = 0.8823	761.85 ± 4.9
323.15 K, 8020 kPa, x2 = 0.2111	694.84 ± 4.5
323.15 K, 9000 kPa, x2 = 0.7301	739.71 ± 4.7
323.15 K, 9010 kPa, x2 = 0.4411	710.74 ± 4.5
323.15 K, 9010 kPa, x2 = 0.8823	762.75 ± 4.9
323.15 K, 9020 kPa, x2 = 0.1631	693.29 ± 4.4
323.15 K, 9020 kPa, x2 = 0.2111	695.78 ± 4.5
323.15 K, 9020 kPa, x2 = 0.3158	701.92 ± 4.5
323.15 K, 10000 kPa, x2 = 0.1631	694.22 ± 4.5
323.15 K, 10000 kPa, x2 = 0.7301	740.61 ± 4.7
323.15 K, 10010 kPa, x2 = 0.2111	696.69 ± 4.5
